From patent US20100221763A1, “Specific Acceptors for Transferases to Saccharides and Method for Obtaining and Using Same” (Health Research, Inc, priority 2005, published 2010)
One block for each compound: values may come before it.

Columns and labels:
[1] = system: β-GlcNAc:β1,4Gal-T of colon tumor CC9338; experiment: β-GlcNAc:β1,4Gal-T assay, colon tumor extract; format: biochemical, human
Description: (§1) Colon tumor tissue (CC9338) and breast tumor tissue (BC9400) were obtained during surgical procedures at Roswell Park Cancer Institute and stored frozen within 1 h at −70° C. The tissues were homogenized at 4° C. with 4 volumes of 0.1M Tris Maleate […] 0.1% NaN3 using kinematica. After adjusting the concentration of Triton X-100 to 2%, these homogenates were mixed in the cold room for 1 h using Speci-Mix (Thermolyne) and then centrifuged at 20,000 g for 1 h at 4° C. The clear fat-free supernatant was stored frozen at −20° C. until use. Aliquots of 10 μL from this extract were used in assays run in duplicates. Glycosyltransferase activity in cell lysate was determined by mixing the lysates with acceptor and radiolabeled donor (monosaccharide) under the reaction conditions detailed below, followed by separation of un-reacted donor from the radioactive product using anionic or hydrophobic chromatography. In all cases, the radioactive content of isolated products was determined by using 3a70 scintillation cocktail (Research Products International, Mount Prospect, Ill.) and a Beckman LS6500 scintillation counter. Controls for each assay contained the reaction mixture with everything except the acceptor. All assays were run in duplicate.
(§2) The acceptors used for measuring the glycosyltransferase and sulfotransferase activities are given in Table I. The following are the conditions for individual enzymatic assays. Reaction temperature in all cases was 37° C. α2,3- and α2,6 sialytransferase (ST) assay reactions proceeded for 2 h in a mixture containing 100 mM sodium cacodylate buffer (pH 6.0), 7.5 mM acceptor, CMP-[9-^3H]NeuAc (typically 0.2 μCi) and 10 μl cell extract in a total volume of 20 μl [Chandrasekaran et al., 1995]. βGlcNAc:β1,4Gal-T and αGalNAc:β1,3Gal-T assay mixtures in duplicate contained 0.1M Hepes-NaOH pH 7.0, 7 mM ATP, 20 mM Mn acetate, 1 mM UDP-Gal, UDP [^14C]Gal (0.05 μCi; 327mCi/mmol; Amersham), 0.5 mM acceptor (unless otherwise stated) and the enzyme in a total volume of 20 μL. It was incubated for 4 h [Chandrasekaran et al., 2001]. βGlcNAc:β1,4GalNAc-T assay mixtures in duplicate contained 0.1M Hepes-NaOH pH 7.0, 7 mM ATP, 20 mM Mn acetate. UDP [^3H] GalNAc (0.20 μCi; 7.8 Ci/mmol: New England Nuclear Corp.) 7.5 mM acceptor (unless otherwise stated) and the enzyme in a total volume of 20 μL and incubated for 4 h [Chandrasekaran et al., 2001].
(§3) Dowex-1-C1 or Sep-Pak C18 cartridges were used to isolate radiolabeled product from the reaction mixture. For GalT, GalNAc-T and FT assays, the incubation mixture was diluted with 1 ml water and passed through a 1 ml Dowex-1-C1 column [Chandrasekaran et al., 1996; Chandrasekaran et al., 2001]. The column was washed twice with 1 ml of water. The breakthrough and the water wash contained the [^14C]-galactosylated or [^14C]-fucosylated products formed with neutral acceptors. 3 ml of 0.1M NaCl was used to obtain [^14C]-fucosylated products from sialylated acceptors after water elution. For sialytransferase assays, the radioactive products from benzylglycosides were separated by hydrophobic chromatography on Sep-Pak C18 cartridge (Waters, Milford, Mass.), and elution of the product was done with 3 ml methanol [Palcic et al., 1988]. For sulfotransferase assays, elution of the [^35S]-sulfated compound from Dowex-1-C1 column was achieved by 3 ml of 0.2M NaCl [Chandrasekaran et al., 2004].

[2] = system: β-GlcNAc:β1,4GalNAc-T of colon tumor CC9338; experiment: β-GlcNAc:β1,4GalNAc-T assay, colon tumor extract; format: biochemical, human
Description: as §1, §2, §3

[3] = system: β-GlcNAc:β1,4GalNAc-T of breast tumor BC9400; experiment: β-GlcNAc:β1,4GalNAc-T assay, breast tumor extract; format: biochemical, human
Description: as §1, §2, §3

[4] = system: β-GlcNAc:β1,4Gal-T of breast tumor BC9400; experiment: β-GlcNAc:β1,4Gal-T assay, breast tumor extract; format: biochemical, human
Description: as §1, §2, §3

Siglec 4 (MAG) = settings: Blixt et al. (49); cited from earlier work
human FTVII = target: T1, human FTVII (Homo sapiens, UniProt Q11130); experiment: [14C]Fuc transfer by FTVII from extracts of transfected COS-7 cells; format: biochemical; settings: extracts of COS-7 cells transfected with FTVII cDNA; unpublished results
T1 construct: expressed in transfected cells; host or cells: COS-7
T1 sequence (Q11130 whole entry): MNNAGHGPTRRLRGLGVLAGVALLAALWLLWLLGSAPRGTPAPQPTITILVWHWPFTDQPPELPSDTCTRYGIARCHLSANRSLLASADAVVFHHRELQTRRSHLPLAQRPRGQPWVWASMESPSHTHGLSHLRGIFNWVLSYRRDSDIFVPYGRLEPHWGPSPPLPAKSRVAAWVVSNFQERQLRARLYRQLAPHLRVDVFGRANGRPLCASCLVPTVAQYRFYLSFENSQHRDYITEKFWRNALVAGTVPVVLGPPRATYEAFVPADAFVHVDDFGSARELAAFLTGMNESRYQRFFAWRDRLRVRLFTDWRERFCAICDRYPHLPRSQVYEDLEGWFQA
From the text: The sialylation steps in this reaction scheme were validated by analyzing reaction products using mass spectroscopy (Table VI).

[5] = Gal-T activity with the same acceptor = 100.0%
[6] = other acceptors, 1 mg protein of the tissue extract
[7] = relative to Gal-T activity with the same acceptor

SMILES: C=CCO[C@H]1O[C@H](CO[C@@H]2O[C@H](CO)[C@@H](O)[C@H](O)[C@H]2NC(C)=O)[C@@H](O)[C@H](O)[C@@H]1O [GlcNAcβ1,6Manα-O—Al]
a) β-GlcNAc:β1,4Gal-T activity, percent in parentheses [1, 5]: 100.0%
a) β-GlcNAc:β1,4Gal-T activity: incorporation of radioactive sugar [1, 6]: 493.4 CPM × 10^−3
b) β-GlcNAc:β1,4GalNAc-T activity: incorporation of radioactive sugar [2, 6]: 54.5 CPM × 10^−3
b) β-GlcNAc:β1,4GalNAc-T activity, percent in parentheses [2, 7]: 11.0%
b) β-GlcNAc:β1,4GalNAc-T activity: incorporation of radioactive sugar [3, 6]: 99.2 CPM × 10^−3
b) β-GlcNAc:β1,4GalNAc-T activity, percent in parentheses [3, 7]: 22.4%
a) β-GlcNAc:β1,4Gal-T activity, percent in parentheses [4, 5]: 100.0%
a) β-GlcNAc:β1,4Gal-T activity: incorporation of radioactive sugar [4, 6]: 443.6 CPM × 10^−3

SMILES: CC(=O)NC1C(O)CC(OCC2OC(OC(C)C(N)C(=O)O)C(NC(C)=O)C(OC3OC(CO)C(O)C(OC4(C(=O)O)CC(O)C(NC(C)=O)C(C(O)C(O)CO)O4)C3O)C2O)(C(=O)O)OC1C(O)C(O)CO (stereo not drawn) [NeuAcα2,3Galβ1,3(NeuAcα2,6)GalNAcα-O-Thr, NeuAcα2,3Galβ1,3 (NeuAcα2,6)GalNAcα-O-Thr]
fold more potent than NeuAcα2,6GalNAcα-O-Thr in inhibiting Siglec 4 (MAG) binding (Siglec 4 (MAG)): 3,000 fold

SMILES: CC(=O)NC1C(O)CC(OC2C(O)C(CO)OC(OC3C(O)C(CO)OC(OC(C)C(N)C(=O)O)C3NC(C)=O)C2O)(C(=O)O)OC1C(O)C(O)CO (stereo not drawn) [NeuAcα2,3Galβ1,3GalNAcα-O-Thr]
fold more potent than NeuAcα2,6GalNAcα-O-Thr in inhibiting Siglec 4 (MAG) binding (Siglec 4 (MAG)): 600 fold

transfer of [14C]Fuc to the acceptor (human FTVII): efficiently transferring
SMILES: CO[C@@H]1O[C@H](COS(=O)(=O)O)[C@@H](O[C@@H]2O[C@H](CO)[C@H](O)[C@H](O[C@@H]3O[C@H](COS(=O)(=O)O)[C@@H](O[C@@H]4O[C@H](CO)[C@H](O)[C@H](O[C@]5(C(=O)O)C[C@H](O)[C@@H](NC(C)=O)[C@H]([C@H](O)[C@H](O)CO)O5)[C@H]4O)[C@H](O)[C@H]3NC(C)=O)[C@H]2O)[C@H](O)[C@H]1NC(C)=O [NeuAcα2,3Galβ1,4(6-O-Sulfo)GlcNAcβ1,3Galβ1,4(6-O-Sulfo)GlcNAcβ-O-Me]

SMILES: CC(=O)NC1C(O)CC(OCC2OC(OC(C)C(N)C(=O)O)C(NC(C)=O)C(OC3OC(CO)C(O)C(O)C3O)C2O)(C(=O)O)OC1C(O)C(O)CO (stereo not drawn) [NeuAcα2,6(Galβ1,3)GalNAcα-O-Thr]
fold more potent than NeuAcα2,6GalNAcα-O-Thr in inhibiting Siglec 4 (MAG) binding (Siglec 4 (MAG)): 100 fold
